Test results taken from patent US20260183302A1, “PDK1 REGULATORY COMPOUND AND COMPOSITION CONTAINING THE SAME” (PROVIBIO CO., LTD., priority 2024, published 2026).

What was measured:
[1] = tested on: Human B Lymphocyte cell line, SU-DHL-8; experiment: Relative cell viability, SU-DHL-8 (CCK-8); format: cell-based; conditions: 48 hours, untreated (DMSO) = 100%
How it was run: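 Cells grown in RPMI-1640 with 10% FBS, treated with compound at several concentrations, then given CCK-8 for 4 h at 37° C. Viability expressed as percent of DMSO-treated cells.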

[2] = tested on: Human Colorectal Carcinoma cell line, HCT-116; experiment: Relative cell viability, HCT-116 (CCK-8); format: cell-based; conditions: 48 hours
Protocol: (§1) Human-derived breast cancer cell line MCF-7, human-derived lung cancer cell line A549, human-derived colorectal cancer cell line HCT-116, human pancreatic cancer cell line AsPC-1, glioblastoma cell line A172, and melanoma cell line Malme-3M were obtained from the Korean Cell Bank. gastric cancer cell line SNU-719, and bladder cancer cell line T24 were cultured in RPMI-1640 medium containing 10% FBS.
(§2) Following stabilization, the cells were harvested using Trypsin-EDTA treatment, centrifuged at 1,200 rpm for 3 minutes, the supernatant was removed, and the cells were resuspended in the same medium. They were then seeded into a 96-well plate (Costar 96-well cell culture plate, Corning) at 100 μL per well, and the conditions were adjusted as indicated in Table 5.
(§3) The cells were cultured in a 5% CO2 incubator at 37° C. for 24 hours, and after stabilization of the cells, each plate was washed with 200 μL of PBS per well and treated with 50 μL of culture medium per well.
(§4) After that, 10 μL of CCK-8 was added to each well, and the plate was incubated again at 37° C. in a 5% CO2 incubator for 2 hours.
(§5) In other words, when the survival rate of untreated cells (DMSO) is set at 100%, the relative cell survival rate in each group treated with the drug at different concentrations is indicated.

[3] = tested on: Human Melanoma cancer cell, Malme-3M; experiment: Relative cell viability, Malme-3M (CCK-8); format: cell-based; conditions: 48 hours
Protocol: as §1, §2, §3, §4, §5

[4] = tested on: Human Head and Neck cancer, Fadu; experiment: Relative cell viability, Fadu (CCK-8); format: cell-based; conditions: relative to untreated cells
Protocol: Human-derived head and neck cancer cell line Fadu and osteosarcoma cell line Saos-2 were cultured in MEM medium containing 10% FBS, 100 U/mL penicillin, and 100 μg/mL streptomycin.
as §2, §3, §4, §5

[5] = tested on: skin graft (BALB/c donor to C57BL/6 recipient); experiment: In vivo skin graft immune suppression model; parameters: species or system C57BL/6 mice; conditions: 0.15 mg/kg twice daily
Protocol: To evaluate the immune-suppressive effects of the compounds according to the present invention, a skin graft animal model was established, and the efficacy of the compounds was analyzed in the model.
First, female BALB/c mice aged 7 weeks and weighing approximately 20 g were used as donor animals, and female C57BL/6 mice of the same age and weight were used as recipient animals. All experimental animals were supplied by HanabioTech Co., Ltd.
Prior to the experiment, the animals were acclimatized in SPF-certified facilities for one week and then used in the experiment. The housing conditions were maintained at a temperature of 22±2° C., relative humidity of 55+10%, and a 12-hour light-dark cycle.
To establish the skin graft model, a anesthetic solution consisting of ketamine, […], and PBS in a volume ratio of 1:1:3 was administered intraperitoneally to C57BL/6 mice to induce anesthesia.
The hair on the dorsal side of the anesthetized mice was removed and disinfected, followed by excision of the full-thickness skin using an 8 mm punch. Subsequently, skin of the same size was harvested from donor mice (BALB/c) and transplanted. […]
Subsequently, the proportions of CD3- and B220-positive cells were analyzed using a flow cytometer.

Row | Compound | Relative cell viability (%) ([1]; SU-DHL-8, 1 μM) | Relative cell viability (%) ([1]; SU-DHL-8, 10 μM) | Relative cell viability (%) ([1]; SU-DHL-8, 30 μM) | Relative cell viability (%) ([1]; SU-DHL-8, 50 μM) | Relative cell viability (%) ([2]; HCT-116, 1 μM) | Relative cell viability (%) ([2]; HCT-116, 10 μM) | Relative cell viability (%) ([2]; HCT-116, 30 μM) | Relative cell viability (%) ([2]; HCT-116, 50 μM) | Relative cell viability (%) ([3]; 1 μM) | Relative cell viability (%) ([3]; 10 μM) | Relative cell viability (%) ([3]; 30 μM) | Relative cell viability (%) ([3]; 50 μM) | Relative cell viability (%) ([4]; concentration 1 μM) | Relative cell viability (%) ([4]; concentration 10 μM) | Relative cell viability (%) ([4]; concentration 30 μM) | Relative cell viability (%) ([4]; concentration 50 μM) | animals with graft pinkening and good blood flow ([5]; day 10 post-transplantation) | animals with graft pinkening and good blood flow ([5]; day 15 post-transplantation)
1 | 12-[4-(2,2-dimethylmorpholin-4-yl)]dodecyl-N-(6-aminopurine-2-yl) carboxamide [Compound 11] | 7.63 | 6.09 | 4.82 | 3.29 | 21.36 | 24.91 | 24.78 | 25.26 | 44.06 | 37.40 | 36.80 | 38.87 | 2.08 | 9.68 | 8.51 | 4.78 |  | 
2 | Nc1ncccc1C(=O)NCCCCCCCCCCCCN1CCNCC1 [Compound 14, 2-Amino-N-(12-(piperazin-1-yl)dodecyl)nicotinamide] |  |  |  |  |  |  |  |  |  |  |  |  |  |  |  |  | three out of five | one out of five
